According to US8951560B2, “Isoflavone nanoparticles and use thereof” (DSM IP Assets B.V., priority 2005, dated 2015):

Experiments:
[1] = "swing" test (changing temperature test) of genistein-containing emulsions (Example 10); assay type: physicochemical; details: FIG. 7, comparative: emulsions with example 7 genistein after dry grinding in a Jet mill, 0.3%, 0.5%, 0.1%; ten sequences 5° C./43° C.
Description: To force the crystallization in a disperse system, a test was used in which the temperature is changed over a self-defined timeframe and in self-defined sequences. The test is called “swing” test (changing temperature test). The purpose of this test is to dissolve small particles at the higher temperature and to force re-crystallization at lower temperature. […] The following formulations were used for the “swing” test: […]
Oil- and water phase (o+w) were separately heated up to 70° C. (±5° C.) and were added together. The thickening agent (t) was added under moderate agitation. The mixture was homogenized for 30 seconds at 24,000 RPM by means of an Ultra-Turrax T25 homogenizer. The emulsion was cooled down slowly to 45° C.±5° C. under moderate stirring (horseshoe mixer, 120 RPM). At this temperature the pH value was adjusted to pH 6.5-7.0 by adding base (b). Genistein (g) was added to the still fluid emulsion and was incorporated by homogenizing again for 30 sec. 24,000 RPM by means of an Ultra-Turrax T25 homogenizer. The formulation was cooled down to 25° C.±5° C. under moderate stirring (horseshoe mixer, 120 RPM). […]
FIGS. 5 to 7 show the results of the “swing” test. […] The following genistein samples and concentrations were employed and the emulsions were measured immediately after preparation and after subjecting the samples to ten sequences of the “swing” test: […]

[2] = Genistein particle size by laser diffraction technique (Mastersizer 2000); assay type: physicochemical
[3] = Example 1, after homogenization (42 passes) and spray-drying, powder re-dispersed in water
[4] = Example 1, after homogenization (42 passes), 1500 bar, with starch sodium octenyl succinate, aqueous suspension
[5] = Example 1, before homogenization
[6] = Example 2, after homogenization (40 passes), 1500 bar, water only, no carrier
[7] = Example 2, after homogenization (42 passes) and spray-drying, powder re-dispersed in water
[8] = Example 2, after homogenization (42 passes), starch sodium octenyl succinate solution added after 40th pass
[9] = Example 2, before homogenization
[10] = Example 3, after homogenization (40 passes), 1500 bar, water only, no carrier
[11] = Example 3, after homogenization (42 passes) and spray-drying, powder re-dispersed in water
[12] = Example 3, after homogenization (42 passes), starch sodium octenyl succinate solution added after 40th pass
[13] = Example 3, before homogenization
[14] = Example 4, after homogenization (20 passes), 700 bar, water only, no carrier, about 20% solid
[15] = Example 4, before homogenization
[16] = Example 5, Table XI, after homogenization (42 passes) and spray-drying as headed, maltodextrin solution added after 40th pass
[17] = Example 5, Table XII, after homogenization (42 passes) and spray-drying, maltodextrin carrier, powder re-dispersed in water
[18] = Example 5, after homogenization (20 passes), 1500 bar, water only, no carrier
[19] = Example 5, before homogenization
[20] = Example 6, after homogenization (11 passages) in agitated bead mill, with starch sodium octenyl succinate
[21] = Example 6, before homogenization
[22] = Example 7, Table XIV, before milling and homogenization
[23] = Example 7, Table XV, before milling and homogenization
[24] = Example 7, after milling (Jet mill) and homogenization (12 times, 700 bar) with starch sodium octenyl succinate
[25] = Example 7, after milling, homogenization and spray drying

Particle size change in the "swing" test [1]: Huge crystals are formed
Average particle size D[3, 2] [2, 3]: 0.14 microns
Average particle size D[4, 3] [2, 3]: 0.83 microns
Genistein particle size D (v, 0.1) [2, 3]: 0.07 microns
Genistein particle size D (v, 0.5) [2, 3]: 0.16 microns
Genistein particle size D (v, 0.9) [2, 3]: 2.86 microns
Average particle size D[3, 2] [2, 4]: 0.15 microns
Average particle size D[4, 3] [2, 4]: 0.97 microns
Genistein particle size D (v, 0.1) [2, 4]: 0.07 microns
Genistein particle size D (v, 0.5) [2, 4]: 0.17 microns
Genistein particle size D (v, 0.9) [2, 4]: 3.65 microns
Average particle size D[3, 2] [2, 5]: 23.1 microns
Average particle size D[4, 3] [2, 5]: 48.5 microns
Genistein particle size D (v, 0.1) [2, 5]: 17.1 microns
Genistein particle size D (v, 0.5) [2, 5]: 41.9 microns
Genistein particle size D (v, 0.9) [2, 5]: 91.0 microns
Average particle size D[3, 2] [2, 6]: 0.14 microns
Average particle size D[4, 3] [2, 6]: 0.76 microns
Genistein particle size D (v, 0.1) [2, 6]: 0.07 microns
Genistein particle size D (v, 0.5) [2, 6]: 0.16 microns
Genistein particle size D (v, 0.9) [2, 6]: 2.42 microns
Average particle size D[3, 2] [2, 7]: 0.14 microns
Average particle size D[4, 3] [2, 7]: 0.55 microns
Genistein particle size D (v, 0.1) [2, 7]: 0.07 microns
Genistein particle size D (v, 0.5) [2, 7]: 0.15 microns
Genistein particle size D (v, 0.9) [2, 7]: 1.14 microns
Average particle size D[3, 2] [2, 8]: 0.14 microns
Average particle size D[4, 3] [2, 8]: 0.41 microns
Genistein particle size D (v, 0.1) [2, 8]: 0.07 microns
Genistein particle size D (v, 0.5) [2, 8]: 0.16 microns
Genistein particle size D (v, 0.9) [2, 8]: 0.93 microns
Average particle size D[3, 2] [2, 9]: 23.1 microns
Average particle size D[4, 3] [2, 9]: 48.5 microns
Genistein particle size D (v, 0.1) [2, 9]: 17.1 microns
Genistein particle size D (v, 0.5) [2, 9]: 41.9 microns
Genistein particle size D (v, 0.9) [2, 9]: 91.0 microns
Average particle size D[3, 2] [2, 10]: 0.14 microns
Average particle size D[4, 3] [2, 10]: 0.76 microns
Genistein particle size D (v, 0.1) [2, 10]: 0.07 microns
Genistein particle size D (v, 0.5) [2, 10]: 0.16 microns
Genistein particle size D (v, 0.9) [2, 10]: 2.00 microns
Average particle size D[3,2] (surface mean diameter) [2, 11]: 0.14 microns
Average particle size D[4, 3] [2, 11]: 0.43 microns
Genistein particle size D (v, 0.1) [2, 11]: 0.07 microns
Genistein particle size D (v, 0.5) [2, 11]: 0.16 microns
Genistein particle size D (v, 0.9) [2, 11]: 0.97 microns
Average particle size D[3, 2] [2, 12]: 0.14 microns
Average particle size D[4, 3] [2, 12]: 0.40 microns
Genistein particle size D (v, 0.1) [2, 12]: 0.07 microns
Genistein particle size D (v, 0.5) [2, 12]: 0.16 microns
Genistein particle size D (v, 0.9) [2, 12]: 0.91 microns
Average particle size D[3, 2] [2, 13]: 23.1 microns
Average particle size D[4, 3] [2, 13]: 48.5 microns
Genistein particle size D (v, 0.1) [2, 13]: 17.1 microns
Genistein particle size D (v, 0.5) [2, 13]: 41.9 microns
Genistein particle size D (v, 0.9) [2, 13]: 91.0 microns
Average particle size D[3, 2] [2, 14]: 0.13 microns
Average particle size D[4, 3] [2, 14]: 0.83 microns
Genistein particle size D (v, 0.1) [2, 14]: 0.07 microns
Genistein particle size D (v, 0.5) [2, 14]: 0.15 microns
Genistein particle size D (v, 0.9) [2, 14]: 2.62 microns
Average particle size D[3, 2] [2, 15]: 23.1 microns
Average particle size D[4, 3] [2, 15]: 48.5 microns
Genistein particle size D (v, 0.1) [2, 15]: 17.1 microns
Genistein particle size D (v, 0.5) [2, 15]: 41.9 microns
Genistein particle size D (v, 0.9) [2, 15]: 91.0 microns
Average particle size D[3, 2] [2, 16]: 0.14 microns
Average particle size D[4, 3] [2, 16]: 0.41 microns
Genistein particle size D (v, 0.1) [2, 16]: 0.07 microns
Genistein particle size D (v, 0.5) [2, 16]: 0.16 microns
Genistein particle size D (v, 0.9) [2, 16]: 0.93 microns
Average particle size D[3, 2] [2, 17]: 0.13 microns
Average particle size D[4, 3] [2, 17]: 0.41 microns
Genistein particle size D (v, 0.1) [2, 17]: 0.07 microns
Genistein particle size D (v, 0.5) [2, 17]: 0.15 microns
Genistein particle size D (v, 0.9) [2, 17]: 0.93 microns
Average particle size D[3,2] (surface mean diameter) [2, 18]: 0.14 microns
Average particle size D[4, 3] [2, 18]: 0.42 microns
Genistein particle size D (v, 0.1) [2, 18]: 0.07 microns
Genistein particle size D (v, 0.5) [2, 18]: 0.16 microns
Genistein particle size D (v, 0.9) [2, 18]: 0.92 microns
Average particle size D[3,2] (surface mean diameter) [2, 19]: 23.1 microns
Average particle size D[4, 3] [2, 19]: 48.5 microns
Genistein particle size D (v, 0.1) [2, 19]: 17.8 microns
Genistein particle size D (v, 0.5) [2, 19]: 41.4 microns
Genistein particle size D (v, 0.9) [2, 19]: 90.2 microns
Average particle size D[4, 3] [2, 20]: 0.23 microns
Genistein particle size D (v, 0.1) [2, 20]: 0.07 microns
Genistein particle size D (v, 0.5) [2, 20]: 0.16 microns
Genistein particle size D (v, 0.9) [2, 20]: 0.45 microns
Average particle size D[4, 3] [2, 21]: 48.5 microns
Genistein particle size D (v, 0.1) [2, 21]: 17.8 microns
Genistein particle size D (v, 0.5) [2, 21]: 41.4 microns
Genistein particle size D (v, 0.9) [2, 21]: 90.2 microns
Average particle size D[4, 3] [2, 22]: 48.5 microns
Genistein particle size D (v, 0.1) [2, 22]: 17.8 microns
Genistein particle size D (v, 0.5) [2, 22]: 41.4 microns
Genistein particle size D (v, 0.9) [2, 22]: 90.2 microns
Average particle size D[4, 3] [2, 23]: 48.5 microns
Genistein particle size D (v, 0.1) [2, 23]: 17.8 microns
Genistein particle size D (v, 0.5) [2, 23]: 41.4 microns
Genistein particle size D (v, 0.9) [2, 23]: 90.2 microns
Average particle size D[4, 3] [2, 24]: 0.53 microns
Genistein particle size D (v, 0.1) [2, 24]: 0.07 microns
Genistein particle size D (v, 0.5) [2, 24]: 0.18 microns
Genistein particle size D (v, 0.9) [2, 24]: 1.38 microns
Average particle size D[4, 3] [2, 25]: 0.65 microns
Genistein particle size D (v, 0.1) [2, 25]: 0.08 microns
Genistein particle size D (v, 0.5) [2, 25]: 0.19 microns
Genistein particle size D (v, 0.9) [2, 25]: 1.84 microns
SMILES: O=c1c(-c2ccc(O)cc2)coc2cc(O)cc(O)c12 [Genistein, 4′,5,7-trihydroxyisoflavone]
